Test results reported in patent publication US9193717B2, “Mineralocorticoid receptor antagonists” (Merck Sharp & Dohme Corp., priority 2011, dated 2015).
pIC50: −log10 of the molar value.

Target: T1, full-length human Mineralocorticoid Receptor (MR) (Homo sapiens, UniProt P08235)
T1 construct: full-length human Mineralocorticoid Receptor (MR); host or cells: PathHunter CHO-K1 cells
T1 sequence (P08235 1-984): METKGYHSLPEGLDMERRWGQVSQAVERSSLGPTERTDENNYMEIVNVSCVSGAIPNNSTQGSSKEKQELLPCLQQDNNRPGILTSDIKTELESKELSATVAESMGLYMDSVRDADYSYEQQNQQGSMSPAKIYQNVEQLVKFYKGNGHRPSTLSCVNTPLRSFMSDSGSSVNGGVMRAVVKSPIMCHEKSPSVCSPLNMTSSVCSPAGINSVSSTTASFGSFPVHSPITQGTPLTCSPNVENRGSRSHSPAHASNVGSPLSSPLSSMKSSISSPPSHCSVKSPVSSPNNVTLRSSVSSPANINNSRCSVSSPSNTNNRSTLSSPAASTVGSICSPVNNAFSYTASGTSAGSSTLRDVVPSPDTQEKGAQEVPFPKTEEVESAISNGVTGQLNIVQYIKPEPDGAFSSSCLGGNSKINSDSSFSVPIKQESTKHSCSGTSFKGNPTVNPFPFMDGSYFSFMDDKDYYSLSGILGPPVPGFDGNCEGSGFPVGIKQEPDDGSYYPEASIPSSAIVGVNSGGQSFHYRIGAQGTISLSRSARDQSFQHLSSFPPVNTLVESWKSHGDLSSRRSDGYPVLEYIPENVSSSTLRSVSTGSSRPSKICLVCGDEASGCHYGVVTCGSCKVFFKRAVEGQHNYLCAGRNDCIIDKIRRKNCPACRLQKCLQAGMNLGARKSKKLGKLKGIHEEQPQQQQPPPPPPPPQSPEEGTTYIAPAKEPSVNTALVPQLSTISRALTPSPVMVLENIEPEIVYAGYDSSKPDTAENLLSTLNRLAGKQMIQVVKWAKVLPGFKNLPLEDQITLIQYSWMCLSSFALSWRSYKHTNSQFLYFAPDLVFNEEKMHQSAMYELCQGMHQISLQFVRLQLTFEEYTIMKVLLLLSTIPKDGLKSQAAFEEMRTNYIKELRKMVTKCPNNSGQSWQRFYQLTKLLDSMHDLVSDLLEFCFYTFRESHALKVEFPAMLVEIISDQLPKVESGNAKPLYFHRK
Assay: human MR NH Pro assay (PathHunter Protein:Protein interaction assay, MR antagonism)
Type: cell-based
Conditions: PathHunter CHO-K1 cells that overexpress human MR; aldosterone (0.3 nM), 6 hours at 37° C.; antagonist mode; read-out: IC50 rating
Experimental: The activity of the compounds of the present invention regarding mineralocorticoid receptor antagonism was evaluated using the following assay.
Assessment of Mr Potency in HMR NH Pro Assay
The human MR NH Pro assay is a commercially available PathHunter™ Protein:Protein interaction assay (DiscoveRx; http://www.discoverx.com/nhrs/prod-nhrs.php) that measures the ability of compounds to antagonize full-length human Mineralocorticoid Receptor (MR) binding to a coactivator peptide. PathHunter™ CHO—K1 cells that overexpress human MR (Cat #93-0456C2, Lot No: 09B0913) were cultured in growth media (F12K w/Glutamine and phenol red (Gibco 11765-047) supplemented with 10% HI FBS (Gibco 16000); 0.25 mg/ml Hygromycin in PBS (Invitrogen 10687-010, 50 mg/ml); 100 I.U./mL and 100 μg/mL Pen/Strep (Gibco 15140-122); 0.6 mg/mL Geneticin).
Compounds were assessed for MR antagonist activity by incubating the cells with a titrating dose of compound in F12K w/Glutamine and phenol red culture media (Invitrogen 11765-047) supplemented with 1% Charcoal/Dextran Treated FBS (Hyclone #SH30068.01) and aldosterone (0.3 nM) for 6 hours at 37° C. […] Growth Media: • F12K w/Glutamine and phenol red (Gibco 11765-047) • 10% HI FBS (Gibco 16000) • 0.25 mg/ml Hygromycin in PBS (Invitrogen 10687-010, 50 mg/ml) • 100 I.U./mL and 100 μg/mL Pen/Strep (Gibco 15140-122) • 0.6 mg/mL Geneticin (Gibco 10131, 50 mg/ml) • 2. Assay Media: • F12K w/Glutamine and phenol red (Invitrogen 11765-047) • 1% Charcoal/Dextran Treated FBS (Hyclone #SH30068.01) • 3. 3× PathHunter Detection Reagents (Cat#93-0001) (need ˜6 ml/plate). […] Control Agonist:Aldosterone:Sigma cat# A9477 • Prepare stock solution-10 μM in DMSO kept at −20° C. • for assay, dilute in assay media to 1.8 or 6 nM (6× of final concentration=about 0.3 nM to about 1.0 nM) • 5. Cell line: PathHunter CHO—K1 MR cells Cat #93-0456C2, Lot No: 09B0913, from operation liquid nitrogen stock. • 6. Control Antagonist:Spironolactone:Sigma #S-3378 and Eplerenone Sigma #107724-20-9 (10 mM stock concentration also prepared in DMSO and stored at −20° C.). • Methods: • Assay Set up and Calculations: • 1. Cells were grown in F12+FBS+Hygromycin+pen/strep+Genetin • 2. Cells were collected with 0.05% trypsin and the cell suspension was spun and resuspended in a volume of F12+1.5% CD-FBS and counted. • 3. The cells were resuspended to 4×10^5 cells/mL. • 4. Cells were (25 μL/well) added to the wells of a 384 well plate. • 5. The plate was then incubated at 37° C. over night in a humidified incubator with 5% CO2. • 6. Test compounds were titrated starting at 4.4 mM, 10-point titration in 1:3 dilution. • 7. Aldosterone was diluted in assay media to 1.8 nM or 6 nM from 10 μM stock (final concentration to be about 0.3 nM to about 1.0 nM). • Protocol for 384 Well Plate Format: 6 Hr Treatment: • 1. Plated 10K exponentially growing cells/well (25 μL) resuspended in assay media to each well using the Multidrop (Thermo Electron) (use white wall, clear bottom assay plates (Costar #3570) and incubate overnight at 37° C., 5% CO2. • 2. 0.25 μL 120× test compound (final DMSO concentration should be <1%) was added to each well n=2, 10 point titrations starting at 36.7 μM final concentration. • 3. 5 μL 6× agonist (final aldosterone concentration should be about 0.3 nM to about 1.0 nM) was added to all wells using the PlateMate Plus.
(ThermoFisher) (except those wells in columns 23 and 24) • 4. 5 μL of assay media was added to all wells in column 23 and 24. • 5. Plates were incubated 6 hrs at 37° C., 5% CO2. • 6. 15 μL 3× DiscoveRx detection reagent was added to each well. • 7. Plates were incubated for 1 hour at room temperature (plates stored in the dark). • 8. Plates were read on Envision (PerkinElmer) luminesence plate reader and analyzed using ADA.

First: C[C@H](c1ccccc1)N1C(=O)N[C@](Cc2ccccc2)(c2nc3ccc(Cl)cc3[nH]2)C1=O (single isomer, unassigned) [Compound 38]
Second: C[C@H](c1ccc(F)cc1)N1C(=O)O[C@](Cc2ccccc2)(c2nc3ccccc3[nH]2)C1=O [Compound 3, (5R)-5-(1H-Benzimidazol-2-yl)-5-benzyl-3-[(1R)-1-(4-fluorophenyl)ethyl]-1,3-oxazolidine-2,4-dione]
The pIC50 of the first is lower: 5.70 to 6.30 for the first, 6.30 to 7.00 for the second.

C[C@H](c1ccc(F)cc1)N1C(=O)O[C@](Cc2ccccc2)(c2nc3cc(Cl)ccc3[nH]2)C1=O [Compound 1, (5R)-5-Benzyl-5-(5-chloro-1H-benzimidazol-2-yl)-3-[(1R)-1-(4-fluorophenyl)ethyl]-1,3-oxazolidine-2,4-dione] and C[C@H](c1ccc(F)cc1)N1C(=O)O[C@](Cc2ccccc2)(c2nc3cc(F)ccc3[nH]2)C1=O [Compound 2, (5R)-5-Benzyl-5-(5-fluoro-1H-benzimidazol-2-yl)-3-[(1R)-1-(4-fluorophenyl)ethyl]-1,3-oxazolidine-2,4-dione] fall in the same range of pIC50: 6.30 to 7.00 for the first, 6.30 to 7.00 for the second.

Compared with C[C@H](c1ccc(F)cc1)N1C(=O)O[C@](Cc2ccccc2)(c2nc3cc(OC(F)(F)F)ccc3[nH]2)C1=O [Compound 4, (5R)-5-Benzyl-3-[(1R)-1-(4-fluorophenyl)ethyl]-5-[5-(trifluoromethoxy)-1H-benzimidazol-2-yl]-1,3-oxazolidine-2,4-dione], C[C@H](c1ccc(F)cc1)N1C(=O)O[C@](Cc2ccccc2)(c2nc3cc(C(F)(F)F)ccc3[nH]2)C1=O [Compound 8, (5R)-5-Benzyl-3-[(1R)-1-(4-fluorophenyl)ethyl]-5-[5-(trifluoromethyl)-1H-benzimidazol-2-yl]-1,3-oxazolidine-2,4-dione] is higher in pIC50: 6.30 to 7.00 for the first, greater than 7.00 for the second. The second is the more potent here.

COC(=O)c1ccc2nc([C@@]3(Cc4ccccc4)OC(=O)N([C@H](C)c4ccc(F)cc4)C3=O)[nH]c2c1 [Compound 5, Methyl 2-{(5R)-5-benzyl-3-[(1R)-1-(4-fluorophenyl)ethyl]-2,4-dioxo-1,3-oxazolidin-5-yl}-1H-benzimidazole-5-carboxylate] and CCS(=O)(=O)Nc1ccc2nc([C@@]3(Cc4ccccc4)OC(=O)N([C@H](C)c4ccc(F)cc4)C3=O)[nH]c2c1 [Compound 16, N-(2-{(5R)-5-Benzyl-3-[(1R)-1-(4-fluorophenyl)ethyl]-2,4-dioxo-1,3-oxazolidin-5-yl}-1H-benzimidazol-6-yl)ethanesulfonamide] fall in the same range of pIC50: 6.30 to 7.00 for the first, 6.30 to 7.00 for the second.

First: C[C@H](c1ccc(F)cc1)N1C(=O)O[C@](Cc2ccccc2)(c2nc3cc(-n4cnnn4)ccc3[nH]2)C1=O [Compound 6, (5R)-5-Benzyl-3-[(1R)-1-(4-fluorophenyl)ethyl]-5-[6-(1H-tetrazol-1-yl)-1H-benzimidazol-2-yl]-1,3-oxazolidine-2,4-dione]
Second: C[C@H](c1ccc(F)cc1)N1C(=O)O[C@](Cc2ccccc2)(c2nc3cc(N4CCOCC4)ccc3[nH]2)C1=O [Compound 9, (5R)-5-Benzyl-3-[(1R)-1-(4-fluorophenyl)ethyl]-5-(5-morpholin-4-yl-1H-benzimidazol-2-yl)-1,3-oxazolidine-2,4-dione]
The pIC50 of the first is lower: 6.30 to 7.00 for the first, greater than 7.00 for the second.

First: C[C@H](c1ccc(F)cc1)N1C(=O)O[C@](Cc2ccccc2)(c2nc3ccc(CN4CCOCC4)cc3[nH]2)C1=O [Compound 10, (5R)-5-Benzyl-3-[(1R)-1-(4-fluorophenyl)ethyl]-5-[5-(morpholinylmethyl)-1H-benzimidazol-2-yl]-1,3-oxazolidine-2,4-dione]
Second: C[C@H](c1ccc(F)cc1)N1C(=O)O[C@](Cc2ccccc2)(c2nc3c(Cl)cc(Cl)cc3[nH]2)C1=O [Compound 19, (5R)-5-Benzyl-5-(4,6-dichloro-1H-benzimidazol-2-yl)-3-[(1R)-1-(4-fluorophenyl)ethyl]-1,3-oxazolidine-2,4-dione]
The pIC50 of the first is lower: 6.30 to 7.00 for the first, greater than 7.00 for the second. The second is the more potent here.

CC(C1CCC(F)(F)CC1)N1C(=O)O[C@](Cc2ccccc2)(c2nc3ccc(Cl)cc3[nH]2)C1=O (stereo partly drawn) [Compound 11, (5R)-5-Benzyl-5-(6-chloro-1H-benzimidazol-2-yl)-3-[1-(4,4-difluorocyclohexyl)ethyl]-1,3-oxazolidine-2,4-dione] and C[C@H](C1CCCCC1)N1C(=O)O[C@](Cc2ccccc2)(c2nc3ccc(Cl)cc3[nH]2)C1=O [Compound 12, (5R)-5-Benzyl-5-(5-chloro-1H-benzimidazol-2-yl)-3-[(1R)-1-cyclohexylethyl]-1,3-oxazolidine-2,4-dione] cannot be ordered by pIC50: greater than 7.00 for the first, greater than 7.00 for the second.

O=C1O[C@](Cc2ccccc2)(c2nc3ccc(Cl)cc3[nH]2)C(=O)N1[C@@H]1CCc2ccccc21 [Compound 13, (5R)-5-Benzyl-5-(5-chloro-1H-benzimidazol-2-yl)-3-[(1R)-2,3-dihydro-1H-inden-1-yl]-1,3-oxazolidine-2,4-dione] and O=C1O[C@](Cc2ccc(F)cc2)(c2nc3ccc(Cl)cc3[nH]2)C(=O)N1[C@@H]1CCc2ccccc21 [Compound 17, 5-(6-Chloro-1H-benzimidazol-2-yl)-3-[(1R)-2,3-dihydro-1H-inden-1-yl]-5-(4-fluorobenzyl)-1,3-oxazolidine-2,4-dione] fall in the same range of pIC50: 6.30 to 7.00 for the first, 6.30 to 7.00 for the second.

C[C@H](c1ccc(F)c(F)c1)N1C(=O)O[C@](Cc2ccccc2)(c2nc3ccc(Cl)cc3[nH]2)C1=O [Compound 15, (5R)-5-Benzyl-5-(6-chloro-1H-benzimidazol-2-yl)-3-[(1R)-1-(3,4-difluorophenyl)ethyl]-1,3-oxazolidine-2,4-dione] and C[C@H](C1CCCCC1)N1C(=O)O[C@](Cc2ccc(F)cc2)(c2nc3ccc(C#N)cc3[nH]2)C1=O [Compound 18, 2-{3-[(1R)-1-Cyclohexylethyl]-5-(4-fluorobenzyl)-2,4-dioxo-1,3-oxazolidin-5-yl}-1H-benzimidazole-5-carbonitrile] fall in the same range of pIC50: 6.30 to 7.00 for the first, 6.30 to 7.00 for the second.
